Measurements as given in patent US20250282757A1, “ARYL ETHER-SUBSTITUTED HETEROCYCLIC COMPOUNDS AS GLP1R AGONISTS” (MINDRANK AI LTD., priority 2021, published 2025).
pEC50: −log10 of the molar value.

Molecular target: GLP-1R (Homo sapiens, UniProt P43220)
Experiment: Agonist activity on GLP-1R, HTRF cAMP detection in stably transfected GLP-1R/HEK293 cells
Assay type: cell-based
Details: for pEC50: 30 min incubation; for Max activity: relative to top concentration of reference GLP-1(7-37)
Description: Detection of Agonist Activity of the Test Compounds on GLP-1R
• 1) The test compound was dissolved in DMSO and diluted 4-fold with Bravo for a total of 10 concentration gradients (the starting concentration was 1 mM). […] HBSS (10 mL) pre-warmed at 37° C. was added, mixed gently, and centrifuged at 1000 rpm for 5 minutes. The supernatant was discarded and another 10 mL of […] was added and mixed gently. […] The plate was shaken to mix at 2000 rpm for 60 seconds. • 7) The cells in the 384-well plate were incubated in CO2 cell incubator at 37° C. for 30 min. • 8) 10 μL of HTRF cAMP detection solution was added to the 384-well plate, stick with sealing film, and incubated at room temperature for 1 hour. • 9) After 1 hour of incubation, the sealing film was removed. The plate was put into the EnVision microplate reader to read the values of OD665 nm and OD615 nm.

GLP-1R, sequence (P43220 24-463): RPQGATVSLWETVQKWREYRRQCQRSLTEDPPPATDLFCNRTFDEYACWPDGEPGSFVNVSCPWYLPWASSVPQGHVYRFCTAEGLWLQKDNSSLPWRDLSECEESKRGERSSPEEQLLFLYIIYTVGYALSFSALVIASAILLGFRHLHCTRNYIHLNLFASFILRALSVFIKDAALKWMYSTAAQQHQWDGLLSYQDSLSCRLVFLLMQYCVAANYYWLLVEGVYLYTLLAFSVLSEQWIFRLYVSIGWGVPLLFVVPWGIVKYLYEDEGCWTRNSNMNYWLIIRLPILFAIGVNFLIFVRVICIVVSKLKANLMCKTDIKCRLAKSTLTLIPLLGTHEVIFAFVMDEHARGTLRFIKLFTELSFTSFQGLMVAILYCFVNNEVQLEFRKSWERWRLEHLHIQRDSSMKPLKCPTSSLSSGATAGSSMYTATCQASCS

| SMILES | pEC50 | Max activity |
| --- | --- | --- |
| CCn1cncc1Cn1c(CN2CCC(Oc3cccc(COc4ccc(C#N)cc4F)n3)CC2)nc2c(F)cc(C(=O)O)cc21 [Compound 2, 2-((4-((6-((4-cyano-2-fluorophenoxy)methyl)pyridin-2-yl)oxy)piperidin-1-yl)methyl)-1-((1-ethyl-1H-imidazol-5-yl)methyl)-4-fluoro-1H-benzo[d]imidazole-6-carboxylic acid] | 10.28 | 98.6% |
| CCn1cncc1Cn1c(CN2CCC(Sc3cccc(COc4ccc(C#N)cc4F)n3)CC2)nc2ccc(C(=O)O)cc21 [Compound C37, 2-((4-((6-((4-cyano-2-fluorophenoxy)methyl)pyridin-2-yl)thio)piperidin-1-yl)methyl)-1-((1-ethyl-1H-imidazol-5-yl)methyl)-1H-benzo[d]imidazole-6-carboxylic acid] | 9.65 | 121.0% |
| CCn1cncc1Cn1c(CN2CCC(Oc3cccc(OCc4ccc(C#N)cc4F)n3)CC2)nc2ccc(C(=O)O)cc21 [Compound S4, 2-((4-((6-((4-cyano-2-fluorobenzyl)oxy)pyridin-2-yl)oxy)piperidin-1-yl)methyl)-1-((1-ethyl-1H-imidazol-5-yl)methyl)-1H-benzo[d]imidazole-6-carboxylic acid] | 9.54 | 106.9% |
| CC(C)n1cncc1Cn1c(CN2CCC(Oc3cccc(COc4ccc(Br)cc4F)c3)CC2)nc2ccc(C(=O)O)cc21 [Compound C30, 2-((4-(3-((4-bromo-2-fluorophenoxy)methyl)phenoxy)piperidin-1-yl)methyl)-1-((1-isopropyl-1H-imidazol-5-yl)methyl)-1H-benzo[d]imidazole-6-carboxylic acid] | 8.23 | 121.2% |
| N#Cc1ccc(OCc2cccc(OC3CCN(Cc4nc5ccc(C(=O)O)cc5n4C[C@@H]4CCO4)CC3)c2)c(F)c1 [Compound 67, (S)-2-((4-(3-((4-cyano-2-fluorophenoxy)methyl)phenoxy)piperidin-1-yl)methyl)-1-(oxetan-2-ylmethyl)-1H-benzo[d]imidazole-6-carboxylic acid] | 8.96 | 106.4% |
| N#Cc1ccc(OCc2cccc(Oc3ccc(Cc4nc5ccc(C(=O)O)cc5n4C[C@@H]4CCO4)cc3)n2)c(F)c1 [Compound C27, (S)-2-(4-((6-((4-cyano-2-fluorophenoxy)methyl)pyridin-2-yl)oxy)benzyl)-1-(oxetan-2-ylmethyl)-1H-benzo[d]imidazole-6-carboxylic acid] | 8.10 | – |
| CCn1cncc1Cn1c(CN2CCC(Oc3ccc(F)c(COc4ccc(C#N)cc4F)n3)CC2)nc2ccc(C(=O)O)cc21 [Compound 3, 2-((4-((6-((4-cyano-2-fluorophenoxy)methyl)-5-fluoropyridin-2-yl)oxy)piperidin-1-yl)methyl)-1-((1-ethyl-1H-imidazol-5-yl)methyl)-1H benzo[d]imidazole-6-carboxylic acid] | 9.50 | 128.3% |
| N#CCC1(Cn2c(CN3CCC(Oc4cccc(CSc5ccc(C#N)cc5F)n4)CC3)nc3ccc(C(=O)O)cc32)CC1 [Compound C13, 2-((4-((6-(((4-cyano-2-fluorophenyl)thio)methyl)pyridin-2-yl)oxy)piperidin-1-yl)methyl)-1-((1-(cyanomethyl)cyclopropyl)methyl)-1H-benzo[d]imidazole-6-carboxylic acid] | 8.74 | 141.7% |
| Cc1cc(C(=O)O)cc2c1nc(CN1CCC(Oc3cccc(COc4ccc(C#N)cc4F)c3)CC1)n2C[C@@H]1CCO1 [Compound C36] | 8.41 | 104.0% |
| CCn1nccc1Cn1c(CN2CCC(Oc3cccc(COc4ccc(C#N)cc4F)n3)CC2)nc2ccc(C(=O)O)cc21 [Compound C39, 2-((4-((6-((4-cyano-2-fluorophenoxy)methyl)pyridin-2-yl)oxy)piperidin-1-yl)methyl)-1-((1-ethyl-1H-pyrazol-5-yl)methyl)-1H-benzo[d]imidazole-6-carboxylic acid] | 8.10 | 142.8% |
